Experimental data published in US20130131121A1, “ANTI-VIRAL AGENT” (priority 2007, published 2013).
≈ marks a conversion by molar mass, not a printed value.

Experiments:
[1] = test system: human cytomegalovirus (HCMV); test: Suppression of HCMV virus production in infected MRC-5 cells (plaque technique); assay type: cell-based; conditions: for EC50: Human betaherpesvirus 5, MRC5, HCMV proliferation in MRC-5 cells, read-out: EC50 (50% effective concentration); for SI (selection index): IC50/EC50
in vitro = conditions: human
[2] = test system: influenza type B virus (B/Malaysia/2506/2004); test: Plaque technique in MDCK cells, influenza type B virus; assay type: cell-based; conditions: tricin concentration of 0.3 μg/ml
[3] = test system: influenza type A virus (A/Hiroshima/52/2005, H3N2); test: Plaque technique in MDCK cells, influenza type A virus; assay type: cell-based; conditions: tricin concentration of 0.3 μg/ml
[4] = Cytotoxicity (IC50) of components separated from Kumazasa extract; conditions: human, MRC-5 human fetal lung fibroblast cells

SMILES	EC50 [1] [µg/mL]	IC50 (in vitro) [µg/mL]	SI (selection index) [1]	proliferation suppression ratio (pt/pc×100%) [2] [%]	proliferation suppression ratio (pt/pc×100%) [3] [%]	proliferation of the virus (virus titer) ([1]; tricin concentration of 111 μg/ml, FIG. 4)	IC50 [4] [µg/mL]
Nc1nc(O)c2ncn(COC(CO)CO)c2n1 [Ganciclovir, reference compound]	0.3 to 0.8 (≈ 1.18 to 3.13 µM)	–	–	–	–	–	–
O=Cc1ccc(O)cc1 [p-hydroxybenzaldehyde]	12.8 (≈ 105 µM)	305 (≈ 2500 µM)	23.8	–	–	–	–
COc1cc(-c2cc(=O)c3c(O)cc(O)cc3o2)cc(OC)c1O [Tricin, 5,7,4′-trihydroxy-3′,5′-dimethoxyflavone]	1.7 (≈ 5.15 µM)	–	1205.8	48	52	virtually completely inhibited	2050 (≈ 6210 µM)
O=C(O)/C=C/c1ccc(O)cc1 [p-coumaric acid, reference compound]	8.2 (≈ 50 µM)	–	22.8	–	–	–	187 (≈ 1140 µM)
Oc1cccnc1 [3-hydroxy pyridine, 3-hydroxypyridine]	3.4 (≈ 35.8 µM)	–	77.4	–	–	–	263 (≈ 2770 µM)
COc1cc(C=O)ccc1O [Vanillin, vanillin]	48 (≈ 315 µM)	–	4.5	–	–	–	215 (≈ 1410 µM)
